Data reported in patent EP0404671A1, “Thioformamide derivatives” (RHONE-POULENC SANTE, priority 1989, dated 1990).

Tests used:
Thoracic aorta = experiment: Vaso-relaxant activity: relaxation of K+-induced contraction of rat thoracic aorta strips; parameters: species or system rats; details: rat thoracic aorta strips denuded of endothelium, contraction induced by 20mM K⁺, cumulative concentration; read-out: Vaso-relaxant EC₉₀
Method: The test methods used were adapted from those described by Winslow et al [Eur. J. Pharmacol., 131, 219-228 (1986)] and Karaki [J. Pharmacol Methods, 18, 1-21, (1987)] for differentiating vaso-relaxant activity.
Thoracic aorta was removed from rats and transverse strips, denuded of endothelium, were suspended in a bath containing Krebs solution. The tension was recorded and a contraction induced by addition of 20mM K⁺ (potassium ion) to the bathing solution. The test compound was added to the bath as a solution in increasing cumulative concentration. The concentration in the bathing solution of the test compound which reduced the K⁺-induced contraction was determined and expressed in nM as the effective concentration (EC₉₀)

[1] = tested on: histamine-induced bronchospasm and blood pressure; experiment: Broncho-relaxant activity in the anaesthetised guinea pig (method of Dixon and Brodie); format: in vivo; details: nebulised aerosol of 200µg/ml aqueous solution for 1 minute; for Broncho-relaxant % maximum bronchospasm: histamine-induced bronchospasm
Method: In in vivo tests in the anaesthetised guinea pig, performed according to the method of Dixon W.E. and Brodie T.G., J. Physiol 29, 97-173 (1903), the effect on histamine-induced bronchospasm and blood pressure was determined.
A nebulised aerosol generated from an aqueous solution , having a concentration of 200µg/ml was administered for 1 minute to the anaesthetised guinea pigs.

mean blood pressure = experiment: Hypotensive activity in the anaesthetised rat; format: in vivo; details: intravenous dose required to reduce the mean blood pressure
Method: The intravenous dose required to reduce the mean blood pressure in an anaesthetised rat was determined and expressed in µg/kg/min as the effective concentration (EC₃₀).

Row | EC90 (Thoracic aorta) [nM] | SMILES | Broncho-relaxant % maximum bronchospasm [1] [%] | Broncho-relaxant B.P. [1] [mmHg] | Hypotensive EC₃₀ (mean blood pressure) [µg/kg/min]
1 | 1 | CNC(=S)[C@]1(c2cccnc2)CCCC/C1=N\OCc1c(F)c(F)c(F)c(F)c1F [Compound 1, (1S)-anti-N-methyl-2-(2,3,4,5,6-pentafluorobenzyloxyimino)-1-(pyrid-3-yl)cyclohexanecarbothioamide] | 28 | 40 | 0.9
2 | 0.3 | CNC(=S)[C@]1(c2cccnc2)CCCC/C1=N\OCc1ccc(F)c(F)c1 [Compound 2, (1S)-anti-N-methyl-2-(3,4-difluorobenzyloxyimino)-1-(pyrid-3-yl)cyclohexanecarbothioamide] | 17 | 32 | 0.5
